Measurements as given in patent US20240358693A1, “METHODS OF TREATING PAIN” (Aisa Pharma, Inc., priority 2023, published 2024).

Tested on: participants with SSc-RP
Test: Scleroderma Health Assessment Questionnaire (SHAQ): disability indices and visual analog scales
Format: in vivo, human
Details: PP Population, Part A, SSc patients, sensitivity analysis
Excerpt: The standard, validated, patient reported outcome measures tool for SSc patients, the Scleroderma Health Assessment Questionnaire (SHAQ), will be used to assess the participant qualify of life. Details are attached in the Appendix. The participant quality of life will be scored, and a disability index calculated for each questionnaire completed by the patient at Screening and each in-clinic visit. The absolute change in participant quality of life from baseline to the end of each dosing period will be calculated similar to frequency data as before.
The SHAQ includes a Raynaud's VAS, which will be reported at screening and each in-clinic visit. The absolute change in Raynaud-VAS, assessed by the participants response to the SHAQ question ‘In the past 7 days, how much have your Raynaud's interfered with your daily activities?’ at baseline and the end of each dosing period will be calculated similar to frequency data as before.
The SHAQ is used to calculate a Disability Index to assess the participant qualify of life. The eight categories assessed by the Disability Index are 1) dressing and grooming, 2) arising, 3) eating, 4) walking, 5) hygiene, 6) reach, 7) grip, and 8) common daily activities. For each of these categories, patients report the amount of difficulty they have in performing two or three specific activities.
There are four possible responses for the Disability Index questions: • Without any difficulty=0 • With some difficulty=1 • With much difficulty=2 • Unable to do=3. • The highest score reported by the patient for any component question of the eight categories determines the score for that category. • If a component question is left blank or the response is too ambiguous to assign a score, then the score for that category is determined by the remaining completed question(s). • If all component questions are blank or if more than one answer is given, then follow up with the respondent is required. • If the respondent's mark is between the response columns, then move it to the closest one. If it's directly between the two, move it to the higher one.
Each of the disability items on the SHAQ has a companion aids/devices variable that is used to record what type(s) of assistance, if any, the participant uses for his/her usual activities. These variables (see below) are coded as follows: • 0=No assistance is needed. • 1=A special device is used by the patient in his/her usual activities. • 2=The patient usually needs help from another person. • 3=The patient usually needs BOTH a special device AND help from another person.
The scoring variables and scoring rules permit the computation of two disability indices, the Standard Disability Index and the Alternative Disability Index.
This question results in a new set of category scores that are computed by adjusting the score for each category, if necessary, based on the patient's use of an aid or device or assistance for that category. If either devices and/or help from another person are checked for a category, the score is set to “2”, unless the score is already “3” (i.e., scores of “0” or “1” are increased to “2”). For example, if the highest score for the dressing category is “1”, and the patient says they use a device for dressing, the computed category score would be “2”. The sum of the computed categories scores is then calculated and divided by the number of categories answered. This gives a score in the 0 to 3 range.
The aid and device variables are not used to calculate the alternative disability index; it is calculated by adding the scores for each of the categories and dividing by the number of categories answered. This gives a score in the 0 to 3 range.
The standard, validated, patient reported outcome measures tool for SSc patients, the SHAQ, was collected at the time points specified in the study schedules (FIG. 2 and FIGS. 4A and 4B) to assess the participant's quality of life. The SHAQ included a Raynaud's VAS that will also be reported separately.

[1] = Day 12 vs baseline, Subject 01-110 Day 12 score excluded
[2] = In-Clinic Visit (Day 12), Subject 01-110 Day 12 score excluded

COCCOC(=O)C1=C(C)NC(C)=C(C(=O)OC/C=C/c2ccccc2)C1c1cccc([N+](=O)[O-])c1 (stereo not drawn) [Any Cilnidipine]
SHAQ Visual Analogue Scale - Raynaud’s, Change from Baseline, Min (Day 12 vs baseline): −4.10
SHAQ Visual Analogue Scale - Raynaud’s, Change from Baseline, Q1 (Day 12 vs baseline): −1.000
SHAQ Visual Analogue Scale - Raynaud’s, Change from Baseline, Q3 (Day 12 vs baseline): 0.000
SHAQ Visual Analogue Scale - Raynaud’s, Percent Change from Baseline, Max (Day 12 vs baseline): 136.4%
SHAQ Visual Analogue Scale - Raynaud’s, Percent Change from Baseline, Mean (Day 12 vs baseline): −20.44%
SHAQ Visual Analogue Scale - Raynaud’s, Percent Change from Baseline, Median (Day 12 vs baseline): −33.33%
SHAQ Visual Analogue Scale - Raynaud’s, Percent Change from Baseline, Min (Day 12 vs baseline): −100.0%
SHAQ Visual Analogue Scale - Raynaud’s, Percent Change from Baseline, Q1 (Day 12 vs baseline): −50.62%
SHAQ Visual Analogue Scale - Raynaud’s, Percent Change from Baseline, Q3 (Day 12 vs baseline): 0.00%
SHAQ Visual Analogue Scale - Breathing Problems, Change from Baseline, Max [1]: 3.70
SHAQ Visual Analogue Scale - Breathing Problems, Change from Baseline, Mean [1]: 0.025
SHAQ Visual Analogue Scale - Breathing Problems, Change from Baseline, Median [1]: 0.000
SHAQ Visual Analogue Scale - Breathing Problems, Change from Baseline, Min [1]: −2.00
SHAQ Visual Analogue Scale - Breathing Problems, Change from Baseline, Q1 [1]: −0.700
SHAQ Visual Analogue Scale - Breathing Problems, Change from Baseline, Q3 [1]: 0.450
SHAQ Visual Analogue Scale - Breathing Problems, Percent Change from Baseline, Max [1]: 600.0%
SHAQ Visual Analogue Scale - Breathing Problems, Percent Change from Baseline, Mean [1]: 50.12%
SHAQ Visual Analogue Scale - Breathing Problems, Percent Change from Baseline, Median [1]: −16.00%
SHAQ Visual Analogue Scale - Breathing Problems, Percent Change from Baseline, Min [1]: −100.0%
SHAQ Visual Analogue Scale - Breathing Problems, Percent Change from Baseline, Q1 [1]: −75.00%
SHAQ Visual Analogue Scale - Breathing Problems, Percent Change from Baseline, Q3 [1]: 115.63%
SHAQ Alternative Disability Index, Max (In-Clinic Visit (Day 12)): 1.50
SHAQ Alternative Disability Index, Mean (In-Clinic Visit (Day 12)): 0.450
SHAQ Alternative Disability Index, Median (In-Clinic Visit (Day 12)): 0.250
SHAQ Alternative Disability Index, Min (In-Clinic Visit (Day 12)): 0.00
SHAQ Alternative Disability Index, Q1 (In-Clinic Visit (Day 12)): 0.000
SHAQ Alternative Disability Index, Q3 (In-Clinic Visit (Day 12)): 0.714
SHAQ Visual Analogue Scale - Finger Ulcers, Max (In-Clinic Visit (Day 12)): 5.60
SHAQ Visual Analogue Scale - Finger Ulcers, Mean (In-Clinic Visit (Day 12)): 0.731
SHAQ Visual Analogue Scale - Finger Ulcers, Median (In-Clinic Visit (Day 12)): 0.000
SHAQ Visual Analogue Scale - Finger Ulcers, Min (In-Clinic Visit (Day 12)): 0.00
SHAQ Visual Analogue Scale - Finger Ulcers, Q1 (In-Clinic Visit (Day 12)): 0.000
SHAQ Visual Analogue Scale - Finger Ulcers, Q3 (In-Clinic Visit (Day 12)): 0.900
SHAQ Visual Analogue Scale - Intestinal Problems, Max (In-Clinic Visit (Day 12)): 4.50
SHAQ Visual Analogue Scale - Intestinal Problems, Mean (In-Clinic Visit (Day 12)): 1.121
SHAQ Visual Analogue Scale - Intestinal Problems, Median (In-Clinic Visit (Day 12)): 0.600
SHAQ Visual Analogue Scale - Intestinal Problems, Min (In-Clinic Visit (Day 12)): 0.00
SHAQ Visual Analogue Scale - Intestinal Problems, Q1 (In-Clinic Visit (Day 12)): 0.000
SHAQ Visual Analogue Scale - Intestinal Problems, Q3 (In-Clinic Visit (Day 12)): 1.900
SHAQ Visual Analogue Scale - Overall Disease Severity, Max (In-Clinic Visit (Day 12)): 7.30
SHAQ Visual Analogue Scale - Overall Disease Severity, Mean (In-Clinic Visit (Day 12)): 2.203
SHAQ Visual Analogue Scale - Overall Disease Severity, Median (In-Clinic Visit (Day 12)): 1.400
SHAQ Visual Analogue Scale - Overall Disease Severity, Min (In-Clinic Visit (Day 12)): 0.00
SHAQ Visual Analogue Scale - Overall Disease Severity, Q1 (In-Clinic Visit (Day 12)): 0.800
SHAQ Visual Analogue Scale - Overall Disease Severity, Q3 (In-Clinic Visit (Day 12)): 3.050
SHAQ Visual Analogue Scale - Pain, Max (In-Clinic Visit (Day 12)): 5.50
SHAQ Visual Analogue Scale - Pain, Mean (In-Clinic Visit (Day 12)): 2.476
SHAQ Visual Analogue Scale - Pain, Median (In-Clinic Visit (Day 12)): 2.200
SHAQ Visual Analogue Scale - Pain, Min (In-Clinic Visit (Day 12)): 0.00
SHAQ Visual Analogue Scale - Pain, Q1 (In-Clinic Visit (Day 12)): 1.000
SHAQ Visual Analogue Scale - Pain, Q3 (In-Clinic Visit (Day 12)): 3.800
SHAQ Visual Analogue Scale - Raynaud’s, Max (In-Clinic Visit (Day 12)): 5.20
SHAQ Visual Analogue Scale - Raynaud’s, Mean (In-Clinic Visit (Day 12)): 2.022
SHAQ Visual Analogue Scale - Raynaud’s, Median (In-Clinic Visit (Day 12)): 1.400
SHAQ Visual Analogue Scale - Raynaud’s, Min (In-Clinic Visit (Day 12)): 0.00
SHAQ Visual Analogue Scale - Raynaud’s, Q1 (In-Clinic Visit (Day 12)): 0.500
SHAQ Visual Analogue Scale - Raynaud’s, Q3 (In-Clinic Visit (Day 12)): 4.000
SHAQ Visual Analogue Scale - Breathing Problems, Max [2]: 6.90
SHAQ Visual Analogue Scale - Breathing Problems, Mean [2]: 1.388
SHAQ Visual Analogue Scale - Breathing Problems, Median [2]: 0.300
SHAQ Visual Analogue Scale - Breathing Problems, Min [2]: 0.00
SHAQ Visual Analogue Scale - Breathing Problems, Q1 [2]: 0.000
SHAQ Visual Analogue Scale - Breathing Problems, Q3 [2]: 1.800
